Reference: patent US12678386B2, “Organic compounds as TRPM8 activators” (Givaudan SA, priority 2021, dated 2026)

What follows are compounds tested against T1, hTRPM8 (Homo sapiens, UniProt Q7Z2W7) (assay: Assay on TRPM8 modulators: calcium imaging (Fluo-4, Flexstation) in HEK293 cell line stably expressing hTRPM8). Conditions: HEK293 cells stably expressing hTRPM8; calcium influx, sigmoidal dose-response fit.
T1 construct: expressed in transfected cells
Assay type: cell-based
Method: A HEK293 cell line stably expressing hTRPM8 was generated according to Klein et al., (Chem. Senses 36: 649-658, 2011) and receptor activation was monitored by calcium imaging in a Flexstation. For Ca-imaging assays of TRPM8 channel activation, cells were seeded on day 0 at a density of 12000 cells per well in Dulbecco's modified Eagle medium (DMEM) containing 9% foetal bovine serum in black, clear bottom 96-well plates that had been coated with 0.001% polyethyleneimine (molecular weight=60 000, Acros Organics). On day 2, agonists were evaluated via calcium imaging using Fluo-4. Briefly, growth medium was discarded, and the cells were incubated in the dark for 1 h at 37° C. in 50 μL loading buffer consisting of 2.7 μM Fluo-4 AM (Invitrogen) and […] probenecid (Sigma-Aldrich) in DMEM (without serum). After incubation, the plates were washed five times with 100 μL of assay buffer (in mM: 130 NaCl, 5 KCl, 10 HEPES, 2 CaCl2, and 10 glucose, pH7.4.) and further incubated in the dark at room temperature for 30 min. The cells were then washed five times with 100 μL assay buffer and then calcium influx to serial dilutions of inventive compounds were measured in a Flexstation 3 (Molecular Devices). Receptor activation was initiated following addition of 20 μl of a 10-fold concentrated ligand stock solution, which is also prepared in assay buffer. Fluorescence was continuously monitored for 15 seconds prior to ligand addition and for 105 seconds after ligand addition, for a total of 120 seconds. Maximal receptor activation in relation to solvent control and relative to 31.6 μM menthol is determined. Data from serial dilutions were processed with a KNIME workflow to fit a sigmoidal dose-response curve and to extrapolate EC50 values.

T1 sequence (Q7Z2W7 whole entry): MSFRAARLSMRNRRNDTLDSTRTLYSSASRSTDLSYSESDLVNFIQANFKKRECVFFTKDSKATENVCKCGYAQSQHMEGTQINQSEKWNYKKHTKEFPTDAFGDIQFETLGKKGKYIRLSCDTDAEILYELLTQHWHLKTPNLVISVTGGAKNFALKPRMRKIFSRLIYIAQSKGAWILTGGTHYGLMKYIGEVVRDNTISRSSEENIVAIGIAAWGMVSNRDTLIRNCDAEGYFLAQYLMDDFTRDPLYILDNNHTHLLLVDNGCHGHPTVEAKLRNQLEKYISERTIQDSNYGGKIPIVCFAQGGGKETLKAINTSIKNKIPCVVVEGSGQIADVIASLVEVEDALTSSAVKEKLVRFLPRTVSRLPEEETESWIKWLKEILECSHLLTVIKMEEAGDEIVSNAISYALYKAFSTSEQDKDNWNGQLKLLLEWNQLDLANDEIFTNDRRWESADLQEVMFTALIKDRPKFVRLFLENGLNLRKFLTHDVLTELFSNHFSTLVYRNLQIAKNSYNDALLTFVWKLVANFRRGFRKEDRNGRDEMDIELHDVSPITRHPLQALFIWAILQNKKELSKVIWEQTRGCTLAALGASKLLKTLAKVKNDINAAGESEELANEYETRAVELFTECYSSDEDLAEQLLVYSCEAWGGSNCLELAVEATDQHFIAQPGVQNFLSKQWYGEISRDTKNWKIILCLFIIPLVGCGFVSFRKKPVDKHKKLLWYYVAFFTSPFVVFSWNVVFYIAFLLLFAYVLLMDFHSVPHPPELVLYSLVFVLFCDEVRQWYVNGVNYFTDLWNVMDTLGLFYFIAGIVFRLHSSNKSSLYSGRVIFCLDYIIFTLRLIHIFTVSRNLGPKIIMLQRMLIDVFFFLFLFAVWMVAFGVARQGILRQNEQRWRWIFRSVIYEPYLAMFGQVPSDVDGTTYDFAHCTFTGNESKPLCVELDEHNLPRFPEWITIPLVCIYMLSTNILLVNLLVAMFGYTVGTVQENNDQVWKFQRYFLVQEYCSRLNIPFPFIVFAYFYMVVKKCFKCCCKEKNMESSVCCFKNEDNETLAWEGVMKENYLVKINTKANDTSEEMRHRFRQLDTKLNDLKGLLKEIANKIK

SMILES | EC50
CCC(C)C(=O)N1CCCCC1c1nc(-c2ccc(C)cc2)cn1C(=O)C(C)C (stereo not shown) [1-(2-(1-isobutyryl-4-(p-tolyl)-1 H-imidazol-2-yl)piperidin-1-yl)-2-methylbutan-1-one] | 50 to 300 nM
CSC(C)C(=O)N1CCCCC1c1nc(-c2ccc(C)cc2)cn1C(C)=O (stereo not shown) [1-(2-(1-acetyl-4-(p-tolyl)-1 H-imidazol-2-yl)piperidin-1-yl)-2-(methylthio)propan-1-one] | 50 to 300 nM
CSC(C)C(=O)N1CCCCC1c1nc(-c2ccc(C)cc2)cn1C(=O)[C@@H]1C[C@H](C)CC[C@H]1C(C)C (stereo partly drawn) [1-(2-(1-((1R,2S,5R)-2-isopropyl-5-methylcyclohexane-1-carbonyl)-4-(p-tolyl)-1H-imidazol-2-yl)piperidin-1-yl)-2-(methylthio)propan-1-one] | 300 to 1000 nM
CCC(C)C(=O)N1CCCCC1c1nc(-c2ccc(C)cc2)cn1C(=O)[C@@H]1C[C@H](C)CC[C@H]1C(C)C (stereo partly drawn) [1-(2-(1-((1R,2S,5R)-2-isopropyl-5-methylcyclohexane-1-carbonyl)-4-(p-tolyl)-1H-imidazol-2-yl)piperidin-1-yl)-2-methylbutan-1-one] | 1000 to 35000 nM
CCCCCCCCCCCC(=O)n1cc(-c2ccc(C)cc2)nc1C1CCCCN1C(=O)C(C)SC (stereo not shown) [1-(2-(1-(2-(methylthio)propanoyl)piperidin-2-yl)-4-(p-tolyl)-1H-imidazol-1-yl)dodecan-1-one] | 50 to 300 nM
CCCCCCCCCCCC(=O)n1cc(-c2ccc(C)cc2)nc1C1CCCCN1C(=O)C(C)CC (stereo not shown) [1-(2-(1-(2-methylbutanoyl)piperidin-2-yl)-4-(p-tolyl)-1H-imidazol-1-yl)dodecan-1-one] | 300 to 1000 nM
Cc1ccc(-c2cn(C(=O)C(C)C)c(C3CCCCN3C(=O)C(C)C)n2)cc1 (stereo not shown) [1-(2-(1-isobutyryl-4-(p-tolyl)-1H-imidazol-2-yl)piperidin-1-yl)-2-methylpropan-1-one] | 50 to 300 nM
CCC(=O)N1CCCCC1c1nc(-c2ccc(C)cc2)cn1C(=O)CC (stereo not shown) [1-(2-(1-propionyl-4-(p-tolyl)-1 H-imidazol-2-yl)piperidin-1-yl)propan-1-one] | 1000 to 35000 nM
CCCCCC(=O)n1cc(-c2ccc(C)cc2)nc1C1CCCCN1C(=O)C(C)SC (stereo not shown) [1-(2-(1-(2-(methylthio)propanoyl)piperidin-2-yl)-4-(p-tolyl)-1H-imidazol-1-yl)hexan-1-one] | 50 to 300 nM

Continued, values first:

EC50 | SMILES
< 50 nM | CSC(C)C(=O)N1CCCCC1c1nc(-c2ccc(C)cc2)cn1C(=O)C(C)C (stereo not shown) [1-(2-(1-isobutyryl-4-(p-tolyl)-1H-imidazol-2-yl)piperidin-1-yl)-2-(methylthio)propan-1-one]
< 50 nM | Cc1ccc(OCC(=O)N(Cc2cccs2)c2ccn(C(=O)c3ccccc3)n2)cc1 [N-(1-benzoyl-1H-pyrazol-3-yl)-N-(thiophen-2-ylmethyl)-2-(p-tolyloxy)acetamide]
< 50 nM | CCC(C)C(=O)N1CCCCC1c1nc(-c2ccc(C)cc2)cn1C(=O)COCc1ccccc1 (stereo not shown) [1-(2-(1-(2-(benzyloxy)acetyl)-4-(p-tolyl)-1H-imidazol-2-yl)piperidin-1-yl)-2-methylbutan-1-one]
< 50 nM | CSC(C)C(=O)N1CCCCC1c1nc(-c2ccc(C)cc2)cn1C(=O)c1ccccc1 (stereo not shown) [1-(2-(1-benzoyl-4-(p-tolyl)-1 H-imidazol-2-yl)piperidin-1-yl)-2-(methylthio)propan-1-one]
< 50 nM | CCC(C)C(=O)N1CCCCC1c1nc(-c2ccc(C)cc2)cn1C(=O)COC (stereo not shown) [1-(2-(1-(2-methoxyacetyl)-4-(p-tolyl)-1H-imidazol-2-yl)piperidin-1-yl)-2-methylbutan-1-one]
< 50 nM | CC(=O)n1ccc(N(Cc2cccs2)C(=O)COc2ccc(C)cc2)n1 [N-(1-acetyl-1H-pyrazol-3-yl)-N-(thiophen-2-ylmethyl)-2-(p-tolyloxy)acetamide]
< 50 nM | Cc1ccc(OCC(=O)N(Cc2cccs2)c2ccn(C(=O)C(C)C)n2)cc1 [N-(1-isobutyryl-1H-pyrazol-3-yl)-N-(thiophen-2-ylmethyl)-2-(p-tolyloxy)acetamide]
< 50 nM | CCCCCC(=O)n1cc(-c2ccc(C)cc2)nc1C1CCCCN1C(=O)C(C)CC (stereo not shown) [1-(2-(1-(2-methylbutanoyl)piperidin-2-yl)-4-(p-tolyl)-1H-imidazol-1-yl)hexan-1-one]
< 50 nM | CCC(C)C(=O)N1CCCCC1c1nc(-c2ccc(C)cc2)cn1C(C)=O (stereo not shown) [1-(2-(1-acetyl-4-(p-tolyl)-1H-imidazol-2-yl)piperidin-1-yl)-2-methylbutan-1-one]
< 50 nM | CSC(C)C(=O)N1CCCCC1c1nc(-c2ccc(C)cc2)cn1C(=O)C(C)SC (stereo not shown) [2-(methylthio)-1-(2-(1-(2-(methylthio)propanoyl)-4-(p-tolyl)-1H-imidazol-2-yl)piperidin-1-yl)propan-1-one]
